In patent publication US7195783B2, “Hypericin and hypericum extract: specific T-type calcium channel blocker, and their use as T-type calcium channel targeted therapeutics” (FX Life Sciences International GmbH, priority 1999, dated 2007):
“Also recorded” adds a separate entry of the source.

How the values were obtained:
[1] = test system: L-type calcium channels; experiment: Whole-cell patch-clamp, L-type calcium current in cultured N1E-115 neuroblastoma cells; format: cell-based, Mouse; details: cultured N1E-115 cells; hypericin 0.1, 1 and 10 uM (FIG. 1)
Method: (§1) Mouse neuroblastoma cells (N1E115) were cultured in Dulbecco's modified Eagle's medium (GIBCO) containing 10% fetal bovine serum at 37° C. in a humidified atmosphere of 5% CO2 in air. The medium was changed every 3–4 days. After mechanical agitation, 3×10^4 cells were replanted in 35 mm tissue culture dishes containing 4 ml of bath solution. After cell attachment, the dish was mounted on the stage of an inverted phase-contrast microscope (Nikon) for Ca^2+ channel current recording. These cells expressed predominately T channel currents. In experiments where L channels were specifically sought, the cells were grown and maintained at confluence for 3–4 weeks under the same culture conditions with the addition of 2% (vol/vol) dimethyl sulfoxide. Three to five days before use, the cells were replanted with the same medium. These cells expressed predominately L channel currents. A small number of these cells also expressed T channel currents.
The whole-cell version of the patch-clamp technique was used. […] Since the peak currents measured with 20 mM Ba^2+ as the charge carrier were usually small (about 200 pA), the series resistance compensation was not usually employed. […] For every single-cell recording, stable readings were first obtained for 5 min; the drug was then added to the bath solution. […]

[2] = test system: T-type calcium channel; experiment: Whole-cell patch-clamp, T-type calcium current in N1E-115 cells; format: cell-based, Mouse; details: for effect on T-type calcium current: hypericin 0.1 to 10 uM (FIG. 3)
Method: as §1
The whole-cell version of the patch-clamp technique was used. The pipettes had resistance of 2–15 M. Membrane current recordings were made with an Axopatch-1C (Axon Instruments) patch-clamp amplifier. All signals were filtered at 1 kHz and stored in the computer. Since the peak currents measured with 20 mM Ba^2+ as the charge carrier were usually small (about 200 pA), the series resistance compensation was not usually employed. If the capacitive transient overlapped with the onset of the inward current, or if the spatial voltage control was inadequate (i.e., NIE-115 cells with long neural outgrowths), the experimental data were rejected. Unless otherwise specified the current-voltage plots were constructed by using the peak values (corrected for leakage) from the original records for both T and L channel currents. The holding membrane potential was fixed at −80 mV when the T channels were under investigation or at […] when the L channels were studied. […] For every single-cell recording, stable readings were first obtained for 5 min; the drug was then added to the bath solution. […]

[3] = test system: L-type calcium current; experiment: L-type calcium current in vascular smooth muscle cells (VSMC); format: cell-based; details: vascular smooth muscle cells (FIG. 6)
[4] = test system: L-type calcium current; experiment: L-type calcium current in ventricular cells from baby rats; format: cell-based; details: ventricular cells from baby rats (FIG. 7)

hypericin
effect on L-type calcium current activity [1]: slight but not significant increase; also recorded: does not significantly affect
inhibition on T-type calcium current ([2]; 0.15 ug/ml of pure hypericin (FIG. 3)): less than 10%
effect on T-type calcium current [2]: inhibited T-type calcium currents in a dose-dependent manner
effect on T-type calcium current ([2]; listed as Hypericin): dose-dependent inhibitory effect
effect on L-type calcium current [3]: did not affect
effect on L-type calcium current [4]: did not affect
